The results in this text go back to patent US9499601B2, “Molecular probe for sphingolipids” (Agency for Science, Technology and Research, priority 2006, dated 2016).

Where no end group is shown, it is not given here. Where only a bound is given, the exact number is not on record here.

Assay [1] has as its system detergent resistant membrane fractions from human neuroblastomas, SH-SY5Y. Kind of assay: Dot blot binding to isolated DRM density-gradient fractions. As to conditions: fractions 1-12, 1 top (detergent insoluble).
Assay [2] is described as follows: Lipid-protein overlay (fat blot). To be noted: Sphingostrips, relatively low amounts of lipids (100 nmole equivalents). It counts as binding.
For a further assay, the system named is neuroblastoma cells. Kind of assay: Live-cell uptake after glycosphingolipid depletion with Fumonisin B1. To be noted: 10 μM FB1. The class given is cell-based, human.
A further assay has as its system SH-SY5Y neuroblastoma. The assay can be described thus: Live-cell uptake under cholesterol depletion (MβCD). To be noted: only after 2 h of cholesterol depletion. It counts as cell-based, human.
In assay [3] the test system is liposomes of raft-like composition (SM:Ch:POPC) with or without GM1, GD1a, GCB; POPC liposomes. Kind of assay: Liposome binding, fluorescence retained after centrifugal filtration. To be noted: control.
Assay [4] in a line: Lipid-protein overlay (fat blot). It counts as binding, bovine.
A short description of assay [5]: Lipid-protein overlay (fat blot). The class given is binding.
Assay [6] in a line: Lipid-protein overlay (fat blot). The class given is binding. The source holds these as a separate data set.
A short description of assay [7]: Lipid-protein overlay (fat blot). It counts as binding. This is another data set of the same source.
For assay [8], the system named is Drosophila c6 neuronal cells. Kind of assay: Labelling of Drosophila c6 neuronal cells with SBD, SBD* and SBD^scr peptides. The class given is cell-based.
A further assay concerns Drosophila c6 cells. The assay can be described thus: Cholesterol depletion measured with Amplex Red Cholesterol Assay kit. It counts as cell-based. As to conditions: for reduction of cholesterol: 10 mM, 30 min, whole cell lysates. On the procedure:
Cholesterol depletion and overload: Cells were incubated in 4 mM or 10 mM Methyl-β-cyclo-dextrin (MβCD) (Sigma, USA) for 30 min in serum-free medium, and washed. AMPLEX RED™ Cholesterol Assay kit (Invitrogen) was used to measure cholesterol concentrations in cell extracts before OPTIPREP™ gradient formation and later on DRM fractions generated. For cholesterol excess, 10 mM MβCD-cholesterol-complexes were prepared as described previously and incubated with cells at 25° C. for 30 min before labelling. After treatment cells were further incubated in complete medium with FBS.
Drug treatments: For cholesterol depletion cells were incubated in 10 mM Methyl-b-cyclo-dextrin (MbCD) (Sigma, USA) for 30 min in serum-free medium, and washed. AMPLEX RED™ Cholesterol Assay kit (Invitrogen) was used to measure cholesterol concentrations in cell extracts before OPTIPREP™ gradient formation and later on DRM fractions generated.
Treatments that inhibit cholesterol synthesis or that remove cholesterol from membranes are known to disrupt lipid rafts. Methyl-β-cyclo-dextrin (MβCD) was used to deplete Drosophila c6 (FIG. 13) and neuroblastoma cells (data not shown) of cholesterol and related sterols (see Methods), and looked at the effect on SBD binding. First, the effectiveness of the MβCD treatment was tested by measuring total cholesterol levels using the AMPLEX RED™ kit (Invitrogen). On c6 cells, cholesterol was reduced by 42% after 30 min, and the distribution of the remaining cholesterol became more uniform across the density gradient (FIG. 13C).

The mark [9] stands for this setting: peptide at higher concentrations (20 μM).
Where [10] appears, read: peptide at higher concentrations (20 μM), listed as mutated peptide.
Where [11] appears, read: spotted strips, 1000-2000 nmole equivalents lipid.
The mark [12] stands for this setting: spotted strips, 1000-2000 nmole equivalents lipid, listed as scrambled version of the peptide.

Take CtxB [reference compound]: in assay [1], the “binding to density-gradient fractions (dot blot)” value is recorded as “typical two-peak distribution”. Moreover, the “interaction with GM1” value in assay [2] was “recognize”. Besides, in the assay on neuroblastoma cells, the “uptake after Fumonisin B1 (FB1) treatment” value is listed as “not affected”.

As for CtxB-Alexa594, in the assay with SH-SY5Y neuroblastoma, the “uptake under cholesterol depletion” value is on record as “reduced rate of uptake”. In assay [3], the “retention on GM1 liposomes compared with GD1a or no glycolipid” value is “retained more strongly”.

As for DAEFAHDSGAEVHHQELVFFAEDVG [SBD**-myc], the interaction with galactocerebrosides entry in [4] (peptide at low concentrations) is given as “interacted”. Moreover, the “interaction with GD1b” value in assay [5] (peptide at low concentrations) is on record as “very weakly”. For the same molecule, the figures for the “interaction with SM” value in assay [6] (peptide at 5 μM), in assay [6] (setting [9]) and in assay [6] (setting [10]) were “fails to show any interaction”, “fails to show any interaction” and “not”, respectively. Further, the “interaction with GD1a” value is recorded as “fails to show any interaction” in assay [7] (peptide at 5 μM), “only weakly interacts” in assay [7] (setting [9]) and “bound very weakly” in assay [7] (setting [10]).

Regarding “FYHDESEFGHAVEQFGRDVEAVHDL (not fully specified; also: fluorophore, identity and site not given here) [SBD^scr]”, the “internalized punctae (number and intensity)” value in [8] (Oregon Green conjugates, 10 μM each) was “much reduced”. Also, in assay [8] (c6 cells (FIG. 1B)), the “concentration needed for binding to cells” value was no less than 50 µM.

Take FYHDESEFGHAVEQFGRDVEAVHDL [SBD-scr-myc]: the “interaction with GM1” value in [2] (listed as SBD scr-myc) is on record as “interact”; in [2] (listed as SBD-scr), “showed signal”. The interaction with galactocerebrosides entry in [4] (setting [11]) is “bind”. The entries for the “interaction with GD1b” value in assay [5] (setting [11]) and in [5] (setting [12]) were “bind” and “interacted approximately as well”, respectively. Also, the interaction with sphingomyelin result in assay [6] (setting [11]) is recorded as “interacted approximately as well”. The results for the “interaction with GD1a” value in [7] (setting [11]) and in [7] (setting [12]) were “bind” and “interacted approximately as well”, respectively.

Turning to Methyl-β-cyclo-dextrin [MβCD], the results for the reduction of cholesterol with Drosophila c6 cells and in the assay with Drosophila c6 cells (listed as M[…]CD) were 42% and “over 40%”, respectively. Also, the “depletion of total cholesterol” value in the assay with Drosophila c6 cells (Example 1) is reported as 40%.

Turning to “Transferrin-Alexa594: marker of clathrin-mediated uptake”, the “uptake after Fumonisin B1 (FB1) treatment” value in the assay with neuroblastoma cells is recorded as “not significantly altered”; with neuroblastoma cells (listed as Tfr), “essentially unaltered”.

B1: Lysenin: sphingomyelin-binding protein toxin from earthworm (protein, UniProt O18423 1-297, looked up)
Lysenin: MSAKAAEGYEQIEVDVVAVWKEGYVYENRGSTSVDQKITITKGMKNVNSETRTVTATHSIGSTISTGDAFEIGSVEVSYSHSHEESQVSMTETEVYESKVIEHTITIPPTSKFTRWQLNADVGGADIEYMYLIDEVTPIGGTQSIPQVITSRAKIIVGRQIILGKTEIRIKHAERKEYMTVVSRKSWPAATLGHSKLFKFVLYEDWGGFRIKTLNTMYSGYEYAYSSDQGGIYFDQGTDNPKQRWAINKSLPLRHGDVVTFMNKYFTRSGLCYDDGPATNVYCLDKREDKWILEVVG
With B1, the “binding to density-gradient fractions (dot blot)” value in assay [1] is “bound to non-DRM fractions”. Moreover, the “interaction with Sphingomyelin (spot 5)” value in assay [6] (Sphingostrips) is recorded as “recognize”.
